# From PMC8330742, “New benzothieno[2,3-c]pyridines as non-steroidal CYP17 inhibitors: design, synthesis, anticancer screening, apoptosis induction, and in silico ADME profile studies” (Journal of Enzyme Inhibition and Medicinal Chemistry, 2021)
# Columns and labels:
# SK-MEL-2 = experiment: NCI-60 SRB screen; assay type: cell-based, human; settings: Homo sapiens; SK-MEL-2; single dose 10^−5 M; read-out: Growth inhibition (%)
# OVCAR-8 = experiment: NCI-60 SRB screen; assay type: cell-based, human; settings: Homo sapiens; OVCAR-8; single dose 10^−5 M; read-out: Growth inhibition (%)
# MDA-MB-435 = experiment: NCI-60 SRB screen; assay type: cell-based; settings: Homo sapiens, MDA-MB-435, read-out: Growth inhibition (%)
# HOP-62 = experiment: NCI-60 SRB screen; assay type: cell-based, human; settings: Homo sapiens; HOP-62; single dose 10^−5 M; read-out: Growth inhibition (%)
# ACHN = experiment: NCI-60 SRB screen; assay type: cell-based; settings: Homo sapiens, single dose 10^−5 M, read-out: Growth inhibition (%)
# K-562 = experiment: NCI-60 SRB screen; assay type: cell-based, human; settings: Homo sapiens, K562; K-562; single dose 10^−5 M; read-out: Growth inhibition (%)
# LOX IMVI = experiment: NCI-60 SRB screen; assay type: cell-based, human; settings: Homo sapiens, single dose 10^−5 M, read-out: Growth inhibition (%)
# RXF 393 = experiment: NCI-60 SRB screen; assay type: cell-based, human; settings: Homo sapiens; RXF 393; single dose 10^−5 M; read-out: Growth inhibition (%)
# HL-60(TB) = experiment: NCI-60 SRB screen; assay type: cell-based, human; settings: Homo sapiens; HL-60 (TB); single dose 10^−5 M; read-out: Growth inhibition (%)
# NCI-H522 = experiment: NCI-60 SRB screen; assay type: cell-based, human; settings: Homo sapiens; NCI-H522; single dose 10^−5 M; read-out: Growth inhibition (%)
# SF-268 = experiment: NCI-60 SRB screen; assay type: cell-based, human; settings: Homo sapiens; SF-268; single dose 10^−5 M; read-out: Growth inhibition (%)
# SK-OV-3 = experiment: NCI-60 SRB screen; assay type: cell-based, human; settings: Homo sapiens; SK-OV-3; single dose 10^−5 M; read-out: Growth inhibition (%)
# HCT-116 = experiment: NCI-60 SRB screen; assay type: cell-based, human; settings: Homo sapiens; HCT-116; single dose 10^−5 M; read-out: Growth inhibition (%)
# KM12 = experiment: NCI-60 SRB screen; assay type: cell-based, human; settings: Homo sapiens; KM12; single dose 10^−5 M; read-out: Growth inhibition (%)
# OVCAR-3 = experiment: NCI-60 SRB screen; assay type: cell-based, human; settings: Homo sapiens; OVCAR-3; single dose 10^−5 M; read-out: Growth inhibition (%)
# TK-10 = experiment: NCI-60 SRB screen; assay type: cell-based, human; settings: Homo sapiens; TK-10; single dose 10^−5 M; read-out: Growth inhibition (%)
# HCT-15 = experiment: NCI-60 SRB screen; assay type: cell-based, human; settings: Homo sapiens; HCT-15; single dose 10^−5 M; read-out: Growth inhibition (%)
# IGROV1 = experiment: NCI-60 SRB screen; assay type: cell-based, human; settings: Homo sapiens, IGROV-1; IGROV1; single dose 10^−5 M; read-out: Growth inhibition (%)
# NCI/ADR-RES = experiment: NCI-60 SRB screen; assay type: cell-based, human; settings: Homo sapiens, single dose 10^−5 M, read-out: Growth inhibition (%)
# NCI-H226 = experiment: NCI-60 SRB screen; assay type: cell-based, human; settings: Homo sapiens; NCI-H226; single dose 10^−5 M; read-out: Growth inhibition (%)
# MOLT-4 = experiment: NCI-60 SRB screen; assay type: cell-based; settings: Homo sapiens; MOLT-4; single dose 10^−5 M; read-out: Growth inhibition (%)
# SN12C = experiment: NCI-60 SRB screen; assay type: cell-based, human; settings: Homo sapiens, SN12C; SN 12 C; single dose 10^−5 M; read-out: Growth inhibition (%)
# CAKI-1 = experiment: NCI-60 SRB screen; assay type: cell-based, human; settings: Homo sapiens; CAKI-1; single dose 10^−5 M; read-out: Growth inhibition (%)
# [1] = test system: panel of 60 cancer cell lines; experiment: NCI-60 SRB screen, mean or range over the panel; assay type: cell-based, human; settings: Homo sapiens; mean over the cell lines; single dose 10^−5 M; read-out: Mean growth inhibition (%)
# UACC-62 = experiment: NCI-60 SRB screen; assay type: cell-based, human; settings: Homo sapiens; UACC-62; single dose 10^−5 M; read-out: Growth inhibition (%)
# HOP-92 = experiment: NCI-60 SRB screen; assay type: cell-based, human; settings: Homo sapiens; HOP-92; single dose 10^−5 M; read-out: Growth inhibition (%)
# A549/ATCC = experiment: NCI-60 SRB screen; assay type: cell-based, human; settings: Homo sapiens, single dose 10^−5 M, read-out: Growth inhibition (%)
# EKVX = experiment: NCI-60 SRB screen; assay type: cell-based, human; settings: Homo sapiens, single dose 10^−5 M, read-out: Growth inhibition (%)
# OVCAR-4 = experiment: NCI-60 SRB screen; assay type: cell-based, human; settings: Homo sapiens; OVCAR-4; single dose 10^−5 M; read-out: Growth inhibition (%)
# SF-295 = experiment: NCI-60 SRB screen; assay type: cell-based, human; settings: Homo sapiens; SF-295; single dose 10^−5 M; read-out: Growth inhibition (%)
# COLO 205 = experiment: NCI-60 SRB screen; assay type: cell-based, human; settings: Homo sapiens; COLO 205; single dose 10^−5 M; read-out: Growth inhibition (%)
# 786-0 = experiment: NCI-60 SRB screen; assay type: cell-based; settings: Homo sapiens; 786-0; single dose 10^−5 M; read-out: Growth inhibition (%)
# NCI-H23 = experiment: NCI-60 SRB screen; assay type: cell-based, human; settings: Homo sapiens; NCI-H23; single dose 10^−5 M; read-out: Growth inhibition (%)
# NCI-H460 = experiment: NCI-60 SRB screen; assay type: cell-based, human; settings: Homo sapiens; NCI-H460; single dose 10^−5 M; read-out: Growth inhibition (%)
# UACC-257 = experiment: NCI-60 SRB screen; assay type: cell-based, human; settings: Homo sapiens, UACC-257; UACC-275 (so in the source); single dose 10^−5 M; read-out: Growth inhibition (%)
# SR = experiment: NCI-60 SRB screen; assay type: cell-based; settings: Homo sapiens, single dose 10^−5 M, read-out: Growth inhibition (%)
# SW-620 = experiment: NCI-60 SRB screen; assay type: cell-based; settings: Homo sapiens; SW-620; single dose 10^−5 M; read-out: Growth inhibition (%)
# SK-MEL-28 = experiment: NCI-60 SRB screen; assay type: cell-based; settings: Homo sapiens; SK-MEL-28; single dose 10^−5 M; read-out: Growth inhibition (%)
# UO-31 = experiment: NCI-60 SRB screen; assay type: cell-based, human; settings: Homo sapiens; UO-31; single dose 10^−5 M; read-out: Growth inhibition (%)
# CCRF-CEM = experiment: NCI-60 SRB screen; assay type: cell-based; settings: Homo sapiens, single dose 10^−5 M, read-out: Growth inhibition (%)
# SK-MEL-5 = experiment: NCI-60 SRB screen; assay type: cell-based, human; settings: Homo sapiens; SK-MEL-5; single dose 10^−5 M; read-out: Growth inhibition (%)
# HCC-2998 = experiment: NCI-60 SRB screen; assay type: cell-based, human; settings: Homo sapiens; HCC-2998; single dose 10^−5 M; read-out: Growth inhibition (%)
# NCI-H322M = experiment: NCI-60 SRB screen; assay type: cell-based, human; settings: Homo sapiens, single dose 10^−5 M, read-out: Growth inhibition (%)
# M14 = experiment: NCI-60 SRB screen; assay type: cell-based, human; settings: Homo sapiens; M14; single dose 10^−5 M; read-out: Growth inhibition (%)
smiles,measurement,setting,value
"COc1ccc(C2NC(=O)C(C#N)c3c2sc2c(F)cccc32)c(OC)c1 (stereo not shown) [Compound 5a, 1-(2,4-Dimethoxyphenyl)-4-cyano-8-fluoro-1,2-dihydro[1]benzothieno [2,3-c]pyridin-3(4H)-one]",inhibition at 10 µM,SK-MEL-2,35.9%
same,inhibition at 10 µM,OVCAR-8,38.7%
same,inhibition at 10 µM,MDA-MB-435,-129%
same,inhibition at 10 µM,HOP-62,42.6%
same,inhibition at 10 µM,ACHN,62.5%
same,inhibition at 10 µM,K-562,76.1%
same,inhibition at 10 µM,LOX IMVI,60.3%
same,inhibition at 10 µM,RXF 393,90.3%
same,inhibition at 10 µM,HL-60(TB),43%
same,inhibition at 10 µM,NCI-H522,92%
same,inhibition at 10 µM,SF-268,48.9%
same,inhibition at 10 µM,SK-OV-3,49.3%
same,inhibition at 10 µM,HCT-116,77.2%
same,inhibition at 10 µM,KM12,69%
same,inhibition at 10 µM,OVCAR-3,86.3%
same,inhibition at 10 µM,TK-10,1.9%
same,inhibition at 10 µM,HCT-15,63.6%
same,inhibition at 10 µM,IGROV1,48.2%
same,inhibition at 10 µM,NCI/ADR-RES,84.4%
same,inhibition at 10 µM,NCI-H226,37.8%
same,inhibition at 10 µM,MOLT-4,28.6%
same,inhibition at 10 µM,SN12C,26.3%
same,inhibition at 10 µM,CAKI-1,78.7%
same,inhibition at 10 µM,[1],52.5%
same,inhibition at 10 µM,UACC-62,58.8%
same,inhibition at 10 µM,HOP-92,57.8%
same,inhibition at 10 µM,A549/ATCC,41.5%
same,inhibition at 10 µM,EKVX,20.7%
same,inhibition at 10 µM,OVCAR-4,46.3%
same,inhibition at 10 µM,SF-295,72.4%
same,inhibition at 10 µM,COLO 205,11.7%
same,inhibition at 10 µM,786-0,31.6%
same,inhibition at 10 µM,NCI-H23,35.2%
same,inhibition at 10 µM,NCI-H460,68.2%
same,inhibition at 10 µM,UACC-257,31.8%
same,inhibition at 10 µM,SR,86.1%
same,inhibition at 10 µM,SW-620,68.7%
same,inhibition at 10 µM,SK-MEL-28,45.9%
same,inhibition at 10 µM,UO-31,66%
same,inhibition at 10 µM,CCRF-CEM,28.1%
same,inhibition at 10 µM,SK-MEL-5,18.2%
same,inhibition at 10 µM,HCC-2998,11.7%
same,inhibition at 10 µM,NCI-H322M,9.6%
same,inhibition at 10 µM,M14,62.2%
"COc1ccc(C2NC(=O)C(C#N)c3c2sc2c(F)cccc32)cc1 (stereo not shown) [Compound 5b, 4-Cyano-8-fluoro-1-(4-methoxyphenyl)-1,2-dihydro[1]benzothieno[2,3-c] pyridin-3(4H)-one]",inhibition at 10 µM,SK-MEL-2,40%
same,inhibition at 10 µM,OVCAR-8,30.2%
same,inhibition at 10 µM,MDA-MB-435,109%
same,inhibition at 10 µM,HOP-62,54.6%
same,inhibition at 10 µM,ACHN,55.5%
same,inhibition at 10 µM,K-562,86%
same,inhibition at 10 µM,LOX IMVI,54.4%
same,inhibition at 10 µM,RXF 393,44.1%
same,inhibition at 10 µM,HL-60(TB),89.5%
same,inhibition at 10 µM,NCI-H522,79.9%
same,inhibition at 10 µM,SF-268,39%
same,inhibition at 10 µM,SK-OV-3,36.9%
same,inhibition at 10 µM,HCT-116,62.5%
same,inhibition at 10 µM,KM12,60%
same,inhibition at 10 µM,OVCAR-3,99.4%
same,inhibition at 10 µM,TK-10,-12.7%
same,inhibition at 10 µM,HCT-15,66.5%
same,inhibition at 10 µM,IGROV1,58.9%
same,inhibition at 10 µM,NCI/ADR-RES,70.7%
same,inhibition at 10 µM,NCI-H226,39.8%
same,inhibition at 10 µM,MOLT-4,50.9%
same,inhibition at 10 µM,SN12C,38.6%
same,inhibition at 10 µM,CAKI-1,60%
same,inhibition at 10 µM,[1],52.5%
same,inhibition at 10 µM,UACC-62,64.7%
same,inhibition at 10 µM,HOP-92,45.9%
same,inhibition at 10 µM,A549/ATCC,58.5%
same,inhibition at 10 µM,EKVX,38.3%
same,inhibition at 10 µM,OVCAR-4,28.4%
same,inhibition at 10 µM,SF-295,69.5%
same,inhibition at 10 µM,COLO 205,8.44%
same,inhibition at 10 µM,786-0,29.1%
same,inhibition at 10 µM,NCI-H23,24.8%
same,inhibition at 10 µM,NCI-H460,71.4%
same,inhibition at 10 µM,UACC-257,36.1%
same,inhibition at 10 µM,SR,77.9%
same,inhibition at 10 µM,SW-620,75.7%
same,inhibition at 10 µM,SK-MEL-28,47.4%
same,inhibition at 10 µM,UO-31,64.2%
same,inhibition at 10 µM,CCRF-CEM,66%
same,inhibition at 10 µM,SK-MEL-5,39.5%
same,inhibition at 10 µM,HCC-2998,8.46%
same,inhibition at 10 µM,NCI-H322M,34.8%
same,inhibition at 10 µM,M14,66.7%
